From PubChem BioAssay (NCI)
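96-well plates; 48 h exposure; 5 concentrations. Endpoints by linear interpolation between flanking doses. Not reached: highest tested concentration assigned. TGI is the concentration that stops growth completely.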

Tests used:
Test in all cases: inhibition of tumour cell growth, NCI panel, 48 h
SR leukemia = system: SR leukemia
SK-MEL-5 melanoma = system: SK-MEL-5 melanoma
IGROV1 ovarian = system: IGROV1 ovarian
UACC-62 melanoma = system: UACC-62 melanoma
EKVX NSCLC = system: EKVX NSCLC
HOP-62 NSCLC = system: HOP-62 NSCLC
A549 NSCLC = system: A549 NSCLC
MDA-MB-231 breast = system: MDA-MB-231 breast
COLO 205 colon = system: COLO 205 colon
CCRF-CEM leukemia = system: CCRF-CEM leukemia
SF-295 CNS = system: SF-295 CNS

Row | Compound | TGI (SR leukemia) [µM] | TGI (SK-MEL-5 melanoma) [µM] | TGI (IGROV1 ovarian) [µM] | TGI (UACC-62 melanoma) [µM] | TGI (EKVX NSCLC) [µM] | TGI (HOP-62 NSCLC) [µM] | TGI (A549 NSCLC) [µM] | TGI (MDA-MB-231 breast) [µM] | TGI (COLO 205 colon) [µM] | TGI (CCRF-CEM leukemia) [µM] | TGI (SF-295 CNS) [µM]
1 | c1cc2c(cc1NC1=NCCO1)OCO2 | > 100 | > 100 | > 100 | > 100 | > 100 | > 100 | > 100 | > 100 | > 100 | > 21.1 | > 100
2 | [N-]=[N+]=NC(c1cn(C2CC(O)C(CO)O2)c(=O)[nH]c1=O)C(Br)Br (stereo unspecified) | > 100 | > 100 | > 100 | > 100 | > 100 | > 100 | > 100 |  | > 100 | > 100 | > 100
3 | CCOC(=O)c1[nH]c(-c2[nH]c(-c3[nH]c(-c4[nH]c(C(=O)OCC)c(C)c4C(=O)OCC)c(C(=O)OCC)c3C)c(C)c2C(=O)OCC)c(C(=O)OCC)c1C |  | > 100 | > 100 | > 100 | > 100 | > 100 | > 100 | > 100 | > 100 | > 100 | > 100
4 | O=CNNC(=O)Nc1cccc2ccccc12 | > 100 | > 100 | > 100 | > 100 | > 100 | > 100 | > 100 | > 100 | > 100 | > 100 | > 100
5 | O=[N+]([O-])c1ccc2c(c1)N([O-])C1(CCCCC1)[N+]2=O | 51.5 | 28.9 | 36.9 | 37.1 | 29.6 | 31 | 37 | 34.4 | 27.1 | > 100 | 34
6 | CCCCCCCCCCCCCCCCNC(=O)C(=O)/C=C(\O)c1ccc(C)cc1 | > 10 | > 10 | > 10 |  | > 10 | > 10 |  | > 10 | > 10 | > 10 | > 10
7 | O=C(O)CCC(=O)c1ccc2c(c1)C(C(=O)O)CC2 (stereo unspecified) | > 100 | > 100 | > 100 | > 100 | > 100 | > 100 | > 100 | > 100 | > 100 |  | > 100
8 | N#CN/C(N)=N/C/N=C(\N)NC#N | 93.5 | > 100 | > 100 | > 100 | > 100 | > 100 | > 100 |  | > 100 | > 100 | > 100
9 | COc1ccc(C(=O)O[C@H]2[C@@H]3C=CO[C@@H](OC4OC(CO)C(O)C(O)C4O)[C@@H]3[C@@]3(CO)O[C@@H]23)cc1O (stereo partly specified) |  | > 100 | > 100 | > 100 | > 100 | > 100 | > 100 |  | > 100 | > 100 | > 100
10 | CCC1(N=[N+]=[N-])C(=O)c2ccccc2N(C)C1=O (stereo unspecified) | > 100 | > 100 | > 100 | > 100 | > 100 | > 100 | > 100 |  | > 100 | > 100 | > 100
11 | CO/N=C(/C)c1cccc(Nc2nc3ccccc3c3[nH]c4ccccc4c23)c1 | > 100 | 18.2 | 30.6 | 19.3 |  | 21.7 | 24.7 | 25.5 | 20.3 |  | 14.6
12 | Cc1c2ccncc2cc2c1[nH]c1ccccc12 |  | 11.2 | 65.2 | 20.7 | 16.3 | 21.8 | 15.1 |  | 7.72 | 15 | 16.9
13 | CC(=O)OCC1OC(n2cc(F)c(=O)[nH]c2=O)C(NC(=O)OCc2ccccc2)C(OC(C)=O)C1OC(C)=O (stereo unspecified) |  | > 100 | > 100 | > 100 | > 100 | > 100 | > 100 |  |  | > 100 | > 100
14 | NC1=C(NC(=O)Cc2ccccc2F)C(=O)c2ccccc2C1=O |  |  | > 100 | > 100 | > 100 | 51 | > 100 |  | > 100 | > 100 | > 100
15 | O=c1cc(CO)oc2c3c(cc(O)c12)OCC(COC1OC(CO)C(O)C(O)C1O)=CC3 (stereo unspecified) | > 100 | > 100 | > 100 | > 100 | > 100 | > 100 | > 100 |  | > 100 | > 100 | > 100
16 | Brc1ccc(C[P+]2(c3ccccc3)CCCCC2)cc1 | > 100 | 39.1 | > 100 | > 100 | > 100 | > 100 | > 100 |  | > 100 | > 100 | > 100
17 | NC(=S)/N=C(/c1nc2ccc(Cl)cc2[nH]c1=O)C(O)c1ccccc1Cl (stereo unspecified) |  |  | > 100 | > 100 | > 100 | > 100 | > 100 |  | > 100 | > 100 | > 100
18 | CCOc1ccc2[nH]c3c(C)c4ccncc4c(C)c3c2c1 |  | 2.86 | 2.42 |  | 2.9 | 2.3 | 2.88 |  | 3.04 | > 100 | 2.19
